Results from patent US20220151995A1, “PHARMACEUTICAL COMPOSITION FOR TREATING CANCER AND SUPPRESSING METASTASIS, CONTAINING SULFONAMIDE-BASED COMPOUND AS ACTIVE INGREDIENT” (EXOSTEMTECH CO., LTD, priority 2015, published 2022).

Legend:
[1] = tested on: MDA-MB231-CD63-GFP(+) cells; test: Exosome (CD63-GFP) secretion screening of FDA-approved drugs, supernatant fluorescence; assay type: cell-based; details: 24 h, fluorescence 485/538 nm, % of control group, read-out: exosome inhibition rate (relative fluorescence, of control group)
Protocol: Among a total of 1,163 FDA-approved drug libraries, drugs effective in inhibiting exosome secretion of the MDA-MB231 triple negative breast cancer cell line were selected by carrying out screening twice. Sulfisoxazole, Sulfadiazine, Sulfathiazole and Ambrisentan, all of which are ETA receptor antagonists, were selected.
The percentage of inhibition rate of exosome secretion was evaluated for each of the selected ETA receptor antagonists. Briefly, MDA-MB231-CD63-GFP(+) cells were incubated with 30 pM of 1,163 individual FDA-approved drugs for 24 h. The fluorescence of each supernatant was measured at 485 nm (excitation) and 538 nm (emission) using a fluorescence microplate reader. Y-axis indicates the inhibition rate of exosome (CD63-GFP), and X-axis indicates the number of FDA-approved drugs.

MDA-MB231 cells [2] = test: Matrigel invasion assay; assay type: cell-based; details: 25, 50, 100 and 200 μM, 48 hours, compared with the controls
Protocol: A 8[…] insert was placed in a 24-well plate, coated with serum-free medium and Matrigel, and then solidified at 37 for 4 hours. Then, 800µ1 of 10% FBS was added to the lower chamber and 1×10^4 MDA-MB231 cells were added to the upper chamber, followed by treatment with sulfisoxazole or sulfadoxine at 25, 50, 100, and 200µM. After 48 hours, the Matrigel in the insert was removed, followed by washing with PBS, and then the lower chamber was fixed with 60% ethanol, and then stained with crystal violet.

MDA-MB231 cells [3] = test: Cancer cell migration, scratch assay (T-scratch); assay type: cell-based; details: 24 hours, medium containing 2% serum; T-scratch quantification
Protocol: MDA-MB231 cells were seeded in a 24-well plate at 2×10^5 cells/well, and then incubated for 24 hours for the proliferation to a monolayer. After the incubation for 24 hours, the monolayer was straightly scratched with a yellow tip. The cells were washed with PBS to remove floating cells, and then photographed (0 h). Thereafter, a drug was added to a medium containing 2% serum, and then the cells were treated with the medium, and then incubated for 24 hours (24 h). After 24 hours, the cells were photographed for the same site to compare cell migration. The measurement of cell migration was carried out using T-scratch program.

MDA-MB231 cells [4] = test: Cancer cell proliferation, MTT assay; assay type: cell-based; details: 25, 50, 100 and 200 μM; MTT absorbance at 495 nm; compared with the control
Protocol: After the 12-hour incubation, the cells were treated with sulfisoxazole and sulfadoxine at 25, 50, 100, and 200µM, and then re-treated with the same drugs […]. Thereafter, the cells were treated with MT tetrazolium reagent for each time, and then incubated for […]. After 4 hours, the cell proliferation effect was investigated by measuring the absorbance at 495 nm of reduced MTT formazan (3-(4,5-dimethylthiazol-2-yl)-2,5-diphenyl-tetrazolium bromide). The docetaxel (10µM), which is an anticancer drug currently in use, was used as a control.

A549 cells = test: Cancer cell proliferation, WST-1 assay; assay type: cell-based; details: 100 μM and 200 μM daily, 72 hours; compared to control (DMSO)
Protocol: A549 cells were seeded in a 12-well plate at a concentration of 3×10^4 cells/well and then stabilized with growth medium for 24 hours. To evaluate cancer cell growth inhibition, SFX was treated daily at different concentrations (0, 100, 200 μM). After 72 hours, cell growth rate was determined by WST-1 assay (FIG. 13).

A549 = test: Cancer exosome secretion, number of exosomes by Nanosight; assay type: cell-based; details: SFX 100 μM and 200 μM, one day; compared to control (DMSO)
Protocol: After seeding 2×10^6 cells of A549 in T-flask, they were stabilized with growth medium for 24 hours. To isolate cancer exosomes, T-flask was treated with SFX at different concentrations (0, 100, 200 μM), and then lung cancer cells were cultured for one day. After the cell culture medium was collected and filtered, exosomes were separated through ultracentrifugation, and the number of exosomes was determined with Nanosight (FIG. 11).

LLC1 tumor cells = tested on: LLC1 tumor cells
Protocol: The cancer animal models were prepared on the last day acclimatization. C57BL/6 mice used for the production of LLC1 tumor mouse model were used as experimental animals, and after inoculation of LLC1 tumor cells in the mouse thigh at a concentration of 5×10^5 cells/head, SFX was administered from the time when the tumor volume reached 50 mm^3.
After uniformly mixing the SFX solution prepared for each concentration by vortexing, a sonde for mice was connected to a 1 mL syringe to fill the solution, and 100 μL of the solution was orally administered to each mouse in each group.
Tumor volume was measured daily. The volume of the tumor was measured using a vernier caliper on the major axis and the minor axis, and the height was calculated as ½ the size of the minor axis.
[Tumor volume (mm3)=major axis (mm)×minor axis (mm)×½ of the minor axis]
Mouse body weight was measured every other day from the start of the test, and was measured after oral administration of the drug.

Row | SMILES | activity at 30 pM [1] [%] | invasion of cancer cells (MDA-MB231 cells [2]) | migration of cancer cells (MDA-MB231 cells [3]) | proliferation of MDA-MB231 cell lines (MDA-MB231 cells [4]) | further results
1 | COC(c1ccccc1)(c1ccccc1)[C@H](Oc1nc(C)cc(C)n1)C(=O)O [ambrisentan, Ambrisentan] | 101 |  |  |  | 
2 | Nc1ccc(S(=O)(=O)Nc2ncccn2)cc1 [sulfadiazine, Sulfadiazine] | 89.9 |  |  |  | 
3 | COc1ncnc(NS(=O)(=O)c2ccc(N)cc2)c1OC [sulfadoxine] |  | significantly inhibited | inhibited dependent on the concentration | significantly inhibited | 
4 | Nc1ccc(S(=O)(=O)Nc2nccs2)cc1 [sulfathiazole, Sulfathiazole] | 93.8 |  |  |  | 
5 | Cc1noc(NS(=O)(=O)c2ccc(N)cc2)c1C [sulfisoxazole] | 60.8 | significantly inhibited | inhibited dependent on the concentration | inhibited dependent on the concentration | A549 cell growth (A549 cells): inhibited in a concentration-dependent manner; level of cancer exosome secretion (A549): significantly reduced; tumor weight (LLC1 tumor cells; 200 and 400 mg/kg orally, end of the experiment, compared to vehicle group): tendency to decrease; mice that died (survival) (LLC1 tumor cells; oral SFX administration for each concentration): no mice that died; body weight of the animals (LLC1 tumor cells; oral SFX administration, measured every other day): did not show a significant change
